Laboratory results reported in patent EP4745135A1 (Gluetacs Therapeutics (Shanghai) Co., Ltd., priority 2023, dated 2025).

Tests used:
GSPT1 = experiment: Western blot, degradation of substrate protein in hPBMCs; format: cell-based, Human
Experimental: (§1) Conventional Western blot assay was performed to evaluate the effects of the compounds of the present disclosure on the expression of target proteins in cells. • (1) Cell Seeding and Protein Harvesting: Human peripheral blood mononuclear cells (hPBMCs) at a density of 1×10^6 cells/mL were thawed according to the PBMC Recovery Protocol (Milecell Biotechnologies Inc, Shanghai). […] After 24 hours of compounds treatment, cells were harvested and lysed in RIPA protein lysate containing protease inhibitors on ice for 30 min, followed by centrifugation. The supernatant was aspirated as the extracted total cell protein. The protein concentration of the supernatant was determined using the conventional BCA (Bicinchoninic Acid) assay. • (2) To the collected supernatant, 5X SDS sample loading buffer was added, followed by denaturation at 95°C for 5 minutes. The denatured samples were then separated by SDS-PAGE electrophoresis on a polyacrylamide gel, transferred onto a nitrocellulose membrane (0.45 µm NC membrane), blocked with blocking buffer at room temperature for 1 hour, and subjected to antibody incubation and development procedures according to the antibody manufacturer's instructions (Cell Signaling Technology Company).
(§2) Half-Maximal Degradation Concentration value (the drug concentration required for degrading proteins by 50%, abbreviated as DC50) reads method: comparing the grayscale values of Western blot bands from drug-treated samples with those from blank DMSO-treated controls, and identifying the drug concentration range at which the grayscale value is half that of the DMSO-treated control bands.
(§3) DC50 values can be calculated using ImageJ software to measure grayscale values of Western blot bands from drug-treated samples. The concentration-response curve is fitted to estimate the drug concentration corresponding to half the grayscale value.
(§4) Target protein remaining (%) refers to the percentage of target protein remaining in cells after treatment with protein degrader compounds.
(§5) Calculation method for target protein remaining (%): Use ImageJ software to measure grayscale values of Western blot bands from drug (protein degrader)-treated samples. The grayscale value of drug-treated bands is divided by that of internal control protein bands, and the resulting quotient is normalized to obtain the relative percentage of remaining target protein after protein degrader treatment.
(§6) Target protein degradation rate (%) = 1−target protein remaining (%). [formula]

IKZF2 = molecular target: T1, IKZF2 (Homo sapiens, UniProt Q96SW2+Q9UKS7); experiment: as above; format: cell-based
T1 construct: effects of the compounds of the present disclosure on the expression of target proteins in cells; endogenous in cells; host or cells: human PBMCs (Milecell Biotechnologies)
Experimental: as §1, §2, §3, §4, §5, §6

IKZF1 = molecular target: T2, IKZF1 (Homo sapiens, UniProt Q13422+Q96SW2); experiment: as above; format: cell-based
T2 construct: effects of the compounds of the present disclosure on the expression of target proteins in cells; endogenous in cells; host or cells: human PBMCs (Milecell Biotechnologies)
Experimental: as §1, §2, §3, §4, §5, §6

CK1α = molecular target: T3, CK1α (Homo sapiens, UniProt P48729+Q96SW2); experiment: as above; format: cell-based
T3 construct: effects of the compounds of the present disclosure on the expression of target proteins in cells; endogenous in cells; host or cells: human PBMCs (Milecell Biotechnologies)
Experimental: as §1, §2, §3, §4, §5, §6

WEE1 = molecular target: T4, WEE1 (Homo sapiens, UniProt P30291+Q96SW2); experiment: as above; format: cell-based
T4 construct: effects of the compounds of the present disclosure on the expression of target proteins in cells; endogenous in cells; host or cells: human PBMCs (Milecell Biotechnologies)
Experimental: as §1, §2, §3, §4, §5, §6

IKZF3 = molecular target: T5, IKZF3 (Homo sapiens, UniProt Q96SW2+Q9UKT9); experiment: as above; format: cell-based
T5 construct: effects of the compounds of the present disclosure on the expression of target proteins in cells; endogenous in cells; host or cells: human PBMCs (Milecell Biotechnologies)
Experimental: as §1, §2, §3, §4, §5, §6

[1] = molecular target: T6, human Cereblon WT GST-tagged protein (Homo sapiens, UniProt Q96SW2); experiment: CRBN-binding affinity, HTRF (CEREBLON BINDING kit); settings: for inhibition at 0.5 µM: read-out: Inhibition Rate at 0.5 µM (%); for inhibition at 2 µM: read-out: Inhibition Rate at 2 µM (%)
T6 construct: purchased CISBIO 64BDCRBNPEH

[2] = Western blot, 24 hours of compound treatment, compounds tested at 50 nM and 500 nM (concentration for the table not stated)
[3] = 24 hours treatment, compounds at 50 nM and 500 nM (concentration behind the class not stated)

T5 sequence (Q9UKT9 whole entry): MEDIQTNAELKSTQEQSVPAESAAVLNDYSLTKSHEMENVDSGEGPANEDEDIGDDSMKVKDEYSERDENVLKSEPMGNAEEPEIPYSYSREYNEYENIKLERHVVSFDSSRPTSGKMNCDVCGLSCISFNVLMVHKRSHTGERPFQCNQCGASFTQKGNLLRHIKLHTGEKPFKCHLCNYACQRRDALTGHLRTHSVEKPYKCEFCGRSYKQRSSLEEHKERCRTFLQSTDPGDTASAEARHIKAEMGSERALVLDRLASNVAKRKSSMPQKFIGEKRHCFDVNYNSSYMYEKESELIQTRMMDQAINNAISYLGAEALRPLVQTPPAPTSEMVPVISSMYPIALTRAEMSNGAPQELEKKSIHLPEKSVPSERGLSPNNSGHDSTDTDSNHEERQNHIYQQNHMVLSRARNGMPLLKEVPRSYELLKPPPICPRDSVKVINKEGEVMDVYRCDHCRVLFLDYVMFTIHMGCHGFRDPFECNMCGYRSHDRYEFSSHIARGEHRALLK
T5 sequence (Q96SW2 whole entry): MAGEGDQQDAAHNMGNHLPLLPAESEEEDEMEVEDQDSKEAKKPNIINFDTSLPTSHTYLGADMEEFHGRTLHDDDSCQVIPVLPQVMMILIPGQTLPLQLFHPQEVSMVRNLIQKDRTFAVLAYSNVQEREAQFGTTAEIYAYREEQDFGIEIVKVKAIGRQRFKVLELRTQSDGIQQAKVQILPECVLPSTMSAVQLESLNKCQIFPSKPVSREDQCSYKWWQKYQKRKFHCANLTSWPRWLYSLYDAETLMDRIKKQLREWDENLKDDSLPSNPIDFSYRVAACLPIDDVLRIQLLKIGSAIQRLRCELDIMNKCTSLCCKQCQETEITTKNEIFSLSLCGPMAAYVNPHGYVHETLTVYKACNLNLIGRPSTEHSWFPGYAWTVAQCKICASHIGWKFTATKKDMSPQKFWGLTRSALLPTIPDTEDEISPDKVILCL
T5 sequence (Q16531 whole entry partner): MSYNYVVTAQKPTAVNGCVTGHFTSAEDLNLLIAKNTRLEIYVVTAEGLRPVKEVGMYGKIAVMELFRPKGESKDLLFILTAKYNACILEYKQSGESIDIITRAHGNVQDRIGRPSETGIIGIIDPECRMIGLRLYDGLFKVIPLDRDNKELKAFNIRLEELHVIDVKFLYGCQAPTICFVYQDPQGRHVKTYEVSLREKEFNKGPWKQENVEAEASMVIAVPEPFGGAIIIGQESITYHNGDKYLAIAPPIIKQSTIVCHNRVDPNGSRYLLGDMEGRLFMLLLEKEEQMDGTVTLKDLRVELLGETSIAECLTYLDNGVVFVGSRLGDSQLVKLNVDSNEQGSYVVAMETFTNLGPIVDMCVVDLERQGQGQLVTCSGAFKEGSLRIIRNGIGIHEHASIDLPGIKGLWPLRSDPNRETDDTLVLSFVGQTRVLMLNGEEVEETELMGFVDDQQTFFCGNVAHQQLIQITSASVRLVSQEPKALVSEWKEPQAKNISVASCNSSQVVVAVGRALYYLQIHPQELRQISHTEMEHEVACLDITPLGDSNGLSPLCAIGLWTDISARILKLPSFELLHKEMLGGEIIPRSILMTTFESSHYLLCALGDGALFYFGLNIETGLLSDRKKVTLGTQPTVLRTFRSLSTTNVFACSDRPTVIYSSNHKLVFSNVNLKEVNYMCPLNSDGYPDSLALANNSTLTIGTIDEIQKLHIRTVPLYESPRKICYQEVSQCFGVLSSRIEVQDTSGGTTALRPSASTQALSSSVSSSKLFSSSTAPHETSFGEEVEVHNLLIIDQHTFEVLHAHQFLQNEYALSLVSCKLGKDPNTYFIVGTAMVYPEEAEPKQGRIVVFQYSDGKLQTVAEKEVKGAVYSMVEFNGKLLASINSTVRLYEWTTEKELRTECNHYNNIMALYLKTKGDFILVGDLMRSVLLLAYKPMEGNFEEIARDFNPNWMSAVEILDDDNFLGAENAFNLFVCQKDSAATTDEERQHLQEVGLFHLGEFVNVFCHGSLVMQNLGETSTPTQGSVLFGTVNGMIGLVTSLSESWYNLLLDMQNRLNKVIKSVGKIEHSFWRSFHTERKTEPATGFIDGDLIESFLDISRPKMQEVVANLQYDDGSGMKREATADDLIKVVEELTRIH
T4 sequence (P30291 whole entry): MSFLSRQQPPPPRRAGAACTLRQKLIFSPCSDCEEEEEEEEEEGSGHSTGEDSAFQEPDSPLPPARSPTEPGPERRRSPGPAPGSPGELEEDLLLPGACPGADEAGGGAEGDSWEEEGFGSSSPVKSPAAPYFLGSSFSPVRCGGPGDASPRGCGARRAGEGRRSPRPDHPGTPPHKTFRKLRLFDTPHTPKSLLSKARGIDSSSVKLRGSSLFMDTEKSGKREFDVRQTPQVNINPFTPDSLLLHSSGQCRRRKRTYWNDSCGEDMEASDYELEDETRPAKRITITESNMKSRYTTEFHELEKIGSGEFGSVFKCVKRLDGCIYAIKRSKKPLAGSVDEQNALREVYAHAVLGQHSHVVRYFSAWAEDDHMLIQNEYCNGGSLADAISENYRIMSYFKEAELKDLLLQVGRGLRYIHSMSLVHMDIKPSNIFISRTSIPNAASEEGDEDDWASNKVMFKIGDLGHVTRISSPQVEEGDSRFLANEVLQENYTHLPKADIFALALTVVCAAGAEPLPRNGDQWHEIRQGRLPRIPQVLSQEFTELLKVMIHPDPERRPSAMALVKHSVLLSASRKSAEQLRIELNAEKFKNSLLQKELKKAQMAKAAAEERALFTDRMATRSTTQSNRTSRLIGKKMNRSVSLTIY
T4 sequence (Q96SW2 whole entry): as the sequence (Q96SW2 whole entry) above
T4 sequence (Q16531 whole entry partner): as the sequence (Q16531 whole entry partner) above
T2 sequence (Q13422 whole entry): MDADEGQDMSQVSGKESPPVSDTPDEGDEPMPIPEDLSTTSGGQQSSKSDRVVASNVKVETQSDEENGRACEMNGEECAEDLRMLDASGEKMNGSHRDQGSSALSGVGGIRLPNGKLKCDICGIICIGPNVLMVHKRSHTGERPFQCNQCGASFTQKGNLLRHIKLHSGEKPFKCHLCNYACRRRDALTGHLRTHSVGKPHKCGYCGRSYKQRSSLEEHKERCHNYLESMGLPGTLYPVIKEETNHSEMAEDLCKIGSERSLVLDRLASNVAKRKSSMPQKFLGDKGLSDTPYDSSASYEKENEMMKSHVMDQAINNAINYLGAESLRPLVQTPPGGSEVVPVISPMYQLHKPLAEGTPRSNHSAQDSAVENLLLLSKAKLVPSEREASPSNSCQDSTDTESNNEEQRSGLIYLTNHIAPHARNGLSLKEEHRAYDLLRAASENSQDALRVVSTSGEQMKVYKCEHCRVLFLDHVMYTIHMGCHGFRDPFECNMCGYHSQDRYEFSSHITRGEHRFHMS
T2 sequence (Q96SW2 whole entry): as the sequence (Q96SW2 whole entry) above
T2 sequence (Q16531 whole entry partner): as the sequence (Q16531 whole entry partner) above
T6 sequence (Q96SW2 whole entry): as the sequence (Q96SW2 whole entry) above
T3 sequence (P48729 whole entry): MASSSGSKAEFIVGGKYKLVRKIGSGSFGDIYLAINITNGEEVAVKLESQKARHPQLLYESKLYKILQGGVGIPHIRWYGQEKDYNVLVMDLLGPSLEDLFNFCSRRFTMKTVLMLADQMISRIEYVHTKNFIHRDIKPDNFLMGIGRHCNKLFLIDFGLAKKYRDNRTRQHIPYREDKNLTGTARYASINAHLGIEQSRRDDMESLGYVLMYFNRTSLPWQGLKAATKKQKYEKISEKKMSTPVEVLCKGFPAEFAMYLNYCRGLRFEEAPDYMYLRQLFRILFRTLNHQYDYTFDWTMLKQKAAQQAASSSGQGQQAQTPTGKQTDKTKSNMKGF
T3 sequence (Q96SW2 whole entry): as the sequence (Q96SW2 whole entry) above
T3 sequence (Q16531 whole entry partner): as the sequence (Q16531 whole entry partner) above
T1 sequence (Q9UKS7 whole entry): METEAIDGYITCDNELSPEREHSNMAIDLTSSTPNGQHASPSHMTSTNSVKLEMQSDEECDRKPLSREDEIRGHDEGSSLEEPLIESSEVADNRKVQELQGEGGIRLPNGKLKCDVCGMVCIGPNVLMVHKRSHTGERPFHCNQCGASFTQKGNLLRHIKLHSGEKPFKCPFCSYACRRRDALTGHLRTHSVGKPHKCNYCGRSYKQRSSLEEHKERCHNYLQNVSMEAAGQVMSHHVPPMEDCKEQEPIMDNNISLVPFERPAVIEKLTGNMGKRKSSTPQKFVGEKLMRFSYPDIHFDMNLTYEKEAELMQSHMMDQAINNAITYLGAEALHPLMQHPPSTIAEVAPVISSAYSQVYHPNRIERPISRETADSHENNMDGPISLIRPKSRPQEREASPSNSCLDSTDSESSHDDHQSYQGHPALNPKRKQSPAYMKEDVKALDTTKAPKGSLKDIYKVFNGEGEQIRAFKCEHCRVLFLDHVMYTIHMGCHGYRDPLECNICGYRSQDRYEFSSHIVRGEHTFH
T1 sequence (Q96SW2 whole entry): as the sequence (Q96SW2 whole entry) above
T1 sequence (Q16531 whole entry partner): as the sequence (Q16531 whole entry partner) above

Row | SMILES | GSPT1 substrate protein remaining % (GSPT1; [2]) | IKZF2 substrate protein remaining % (IKZF2; [2]) | IKZF 1 substrate protein remaining % (IKZF1; [2]) | CK1α substrate protein remaining % (CK1α; [2]) | Wee1 substrate protein remaining % (WEE1; [2]) | IKZF3 substrate protein remaining % (IKZF3; [2]) | inhibition at 0.5 µM [1] | inhibition at 2 µM [1] | GSPT1 substrate protein remaining % (GSPT1; [3]) | IKZF2 substrate protein remaining % (IKZF2; [3]) | IKZF 1 substrate protein remaining % (IKZF1; [3]) | CK1α substrate protein remaining % (CK1α; [3]) | Wee1 substrate protein remaining % (WEE1; [3]) | IKZF3 substrate protein remaining % (IKZF3; [3])
1 | O=C1CCC(N2Cc3c(CN4CCN(c5ccncc5F)CC4)cccc3C2=S)C(=O)N1 (stereo not shown) [GT-08730, 3-(4-((4-(3-fluoropyridin-4-yl)piperazin-1-yl)methyl)-1-thioxoisoindolin-2-yl)piperidine-2,6-dione] | B (80%< substrate protein remaining %≤ 100%) | B (80%< substrate protein remaining %≤ 100%) | B (80%< substrate protein remaining %≤ 100%) | B (80%< substrate protein remaining %≤ 100%) | A (0% ≤ substrate protein remaining % ≤ 80%) | B (80%< substrate protein remaining %≤ 100%) | 60 to 80% | 80 to 100% |  |  |  |  |  | 
2 | O=C1CCC(N2Cc3c(CN4CCC(c5n[nH]c6cc(F)ccc56)CC4)cccc3C2=S)C(=O)N1 (stereo not shown) [GT-08849, 3-(4-((4-(6-fluoro-1H-indazol-3-yl)piperidin-1-yl)methyl)-1-thioxoisoindolin-2-yl)piperidine-2,6-dione] | A (0% ≤ substrate protein remaining % ≤ 80%) | B (80%< substrate protein remaining %≤ 100%) | B (80%< substrate protein remaining %≤ 100%) | B (80%< substrate protein remaining %≤ 100%) | A (0% ≤ substrate protein remaining % ≤ 80%) | B (80%< substrate protein remaining %≤ 100%) | 60 to 80% | 80 to 100% |  |  |  |  |  | 
3 | O=C1CCC(N2Cc3c(CN4CCN(c5nccc(F)c5F)CC4)cccc3C2=S)C(=O)N1 (stereo not shown) [GT-08728, 3-(4-((4-(3,4-difluoropyridin-2-yl)piperazin-1-yl)methyl)-1-thioxoisoindolin-2-yl)piperidine-2,6-dione] | B (80%< substrate protein remaining %≤ 100%) | B (80%< substrate protein remaining %≤ 100%) | B (80%< substrate protein remaining %≤ 100%) | B (80%< substrate protein remaining %≤ 100%) | A (0% ≤ substrate protein remaining % ≤ 80%) | B (80%< substrate protein remaining %≤ 100%) | 53 to 60% | 80 to 100% |  |  |  |  |  | 
4 | O=C1CCC(N2Cc3c(CN4CCN(c5nsc6cc(F)ccc56)CC4)cccc3C2=S)C(=O)N1 (stereo not shown) [GT-08839, 3-(4-((4-(6-fluorobenzo[d]isothiazol-3-yl)piperazin-1-yl)methyl)-1-thioxoisoindolin-2-yl)piperidine-2,6-dione] | B (80%< substrate protein remaining %≤ 100%) | B (80%< substrate protein remaining %≤ 100%) | B (80%< substrate protein remaining %≤ 100%) | B (80%< substrate protein remaining %≤ 100%) | A (0% ≤ substrate protein remaining % ≤ 80%) | B (80%< substrate protein remaining %≤ 100%) | 60 to 80% | 80 to 100% |  |  |  |  |  | 
5 | O=C1CCC(N2Cc3cc(CN4CCN(c5ncccc5C(F)(F)F)CC4)ccc3C2=S)C(=O)N1 (stereo not shown) [GT-09223, 3-(1-thioxo-5-((4-(3-(trifluoromethyl)pyridin-2-yl)piperazin-1-yl)methyl)isoindolin-2-yl)piperidine-2,6-dione] | B (80%< substrate protein remaining %≤ 100%) | B (80%< substrate protein remaining %≤ 100%) | B (80%< substrate protein remaining %≤ 100%) | A (0% ≤ substrate protein remaining % ≤ 80%) | A (0% ≤ substrate protein remaining % ≤ 80%) | B (80%< substrate protein remaining %≤ 100%) | 60 to 80% | 80 to 100% |  |  |  |  |  | 
6 | Cc1nc(C2CCN(Cc3cccc4c3CN(C3CCC(=O)NC3=O)C4=S)CC2)c2c3c(sc2n1)CCC3 (stereo not shown) [GT-08935, 3-(4-((4-(2-methyl-6,7-dihydro-5H-cyclopenta[4,5]thieno[2,3-d]pyrimidin-4-yl)piperidin-1-yl)methyl)-1-thioxoisoindolin-2-yl)piperidine-2,6-dione] |  |  |  |  |  |  | 60 to 80% | 80 to 100% | A (0% ≤ substrate protein remaining % ≤ 80%) | B (80%< substrate protein remaining %≤ 100%) | A (0% ≤ substrate protein remaining % ≤ 80%) | B (80%< substrate protein remaining %≤ 100%) | A (0% ≤ substrate protein remaining % ≤ 80%) | A (0% ≤ substrate protein remaining % ≤ 80%)
7 | Cc1cc(C2=CCN(Cc3cccc4c3CN(C3CCC(=O)NC3=O)C4=S)CC2)cs1 (stereo not shown) [GT-08318, 3-(4-((4-(5-methylthiophen-3-yl)-3,6-dihydropyridin-1(2H)-yl)methyl)-1-thioxoisoindolin-2-yl)piperidine-2,6-dione] |  |  |  |  |  |  | 40 to 53% | 60 to 80% | B (80%< substrate protein remaining %≤ 100%) | B (80%< substrate protein remaining %≤ 100%) | B (80%< substrate protein remaining %≤ 100%) | B (80%< substrate protein remaining %≤ 100%) | A (0% ≤ substrate protein remaining % ≤ 80%) | A (0% ≤ substrate protein remaining % ≤ 80%)
8 | O=C1CCC(N2Cc3cc(CN4CCC(c5ncnc6sc7c(c56)CCC7)CC4)ccc3C2=S)C(=O)N1 (stereo not shown) [GT-09311, 3-(5-((4-(6,7-dihydro-5H-cyclopenta[4,5]thieno[2,3-d]pyrimidin-4-yl)piperidin-1-yl)methyl)-1-thioxoisoindolin-2-yl)piperidine-2,6-dione] |  |  |  |  |  |  | 60 to 80% | 80 to 100% | A (0% ≤ substrate protein remaining % ≤ 80%) | B (80%< substrate protein remaining %≤ 100%) | A (0% ≤ substrate protein remaining % ≤ 80%) | B (80%< substrate protein remaining %≤ 100%) | A (0% ≤ substrate protein remaining % ≤ 80%) | A (0% ≤ substrate protein remaining % ≤ 80%)
